{
  "source": "patent US9974792B2",
  "about": "“Methods for treating cancers” (Gilead Sciences, Inc., priority 2013, dated 2018)",
  "key": {"[1]": {"system": "phosphorylated Blnk in CD19+CD5+ circulating tumor cells", "test": "Example 1: BCR-mediated signaling, intracellular phosphoprotein flow cytometry", "assay_type": "in vivo, human", "settings": "Days 8 and 29 vs Day 1; CLL subjects (n=35)", "excerpt": "(§1) Nominal p-values from tests of mean change of Day 8 and 29 from Day 1 using mixed model for repeated measures are <0.0005."}, "[2]": {"system": "phosphorylated Btk in CD19+CD5+ circulating tumor cells", "test": "Example 1: BCR-mediated signaling, intracellular phosphoprotein flow cytometry", "assay_type": "in vivo, human", "settings": "Days 8 and 29 vs Day 1; CLL subjects (n=35)", "excerpt": "as §1"}, "[3]": {"system": "phosphorylated Syk in CD19+CD5+ circulating tumor cells", "test": "Example 1: BCR-mediated signaling, intracellular phosphoprotein flow cytometry", "assay_type": "in vivo, human", "settings": "Days 8 and 29 vs Day 1; CLL subjects (n=35)", "excerpt": "as §1"}, "[4]": {"system": "subjects with relapsed or refractory CLL", "protocol": "The safety and efficacy of entospletinib was tested in a phase 2 trial in separate cohorts of subjects with CLL, indolent non-Hodgkin lymphoma (iNHL), mantle cell lymphoma (MCL), or diffuse large B-cell lymphoma (DLBCL). This trial was registered at www.clinicaltrials.gov as #NCT01799889.\nA phase 2, open-label, single-agent study was completed to evaluate the efficacy, safety, tolerability, and pharmacodynamics of entospletinib in subjects with relapsed or refractory hematologic malignancies.\nSubjects who were at least 18 years of age with a documented diagnosis of CLL, as established by the International Workshop on CLL, with progressive disease (PD) were eligible for the study. […] The presence of radiographically measurable lymphadenopathy or extranodal lymphoid malignancy as assessed by computed tomography (CT) or magnetic resonance imaging (MRI) was required for enrollment. […] A Karnofsky performance status of at least 60% and a life expectancy of at least 3 months were required. Required screening laboratory data were collected within 5 weeks before administration of study drug. Subjects with any degree of neutropenia, thrombocytopenia, or anemia attributed to the malignancy by the treating physician were eligible to enroll.\nTreatment with entospletinib was at a dose of 800 mg twice a day over 28-day cycles under fasted conditions. Fasting was defined as no food or liquids other than water for 2 hours pre- and 1 hour post-dose.\nCT or MRI scans were used to document sites of disease, identify target lesions, and assess response and disease progression. […] The findings of an independent review committee were used for analyses of PFS and other tumor control end points.\nSecondary end points included tolerability, objective response rate (ORR), duration of response (DOR), time to response, and lymph node response rate. […] Exploratory end points included plasma drug concentrations and pharmacodynamic biomarkers.\nPFS was defined as the interval from start of treatment to disease progression or death from any cause and analyzed using Kaplan-Meier methods. The findings of the Independent Review Committee (IRC) were considered primary for analyses of PFS and other tumor control responses. […] DOR was defined as the time from when the first response (CR or PR) was achieved until the earlier of the first documentation of definitive disease progression or death from any cause."}, "CCL3": {"system": "CCL3", "test": "Example 2: serum levels of BCR-induced chemokines", "assay_type": "in vivo, human", "settings": "days 8 and 29 of treatment", "excerpt": "(§2) A bone marrow biopsy and aspirate were collected for confirmatory purposes for all subjects who achieved a complete response (CR) or to confirm suspected PD based solely upon declines in the platelet count and/or hemoglobin. Pharmacodynamic assessments, including serum cytokines and protein phosphorylation in circulating CLL cells, occurred before starting therapy and at designated time points thereafter."}, "CCL4": {"system": "CCL4", "test": "Example 2: serum levels of BCR-induced chemokines", "assay_type": "in vivo, human", "settings": "days 8 and 29 of treatment", "excerpt": "as §2"}},
  "data": [
    {"molecule": "c1cn2cc(-c3ccc4cn[nH]c4c3)nc(Nc3ccc(N4CCOCC4)cc3)c2n1", "note": "[compound of formula I, 6-(1H-indazol-6-yl)-N-(4-morpholinophenyl)imidazo[1,2-a]pyrazin-8-amine]", "values": [
      {"measurement": "phosphorylated Blnk in CD19+CD5+ circulating tumor cells", "setting": "[1]", "value": "downregulation"},
      {"measurement": "phosphorylated Btk in CD19+CD5+ circulating tumor cells", "setting": "[2]", "value": "downregulation"},
      {"measurement": "phosphorylated Syk in CD19+CD5+ circulating tumor cells", "setting": "[3]", "value": "downregulation"},
      {"measurement": "DOR exceeded by seventy-five percent of subjects", "setting": "[4]; 23 responding CLL subjects", "value": "> 6.5", "unit": "months"},
      {"measurement": "median DOR", "setting": "[4]; 23 responding CLL subjects", "value": "not yet been reached"},
      {"measurement": "subjects achieving at least a 50% decrease in SPD from baseline", "setting": "[4]; 39 evaluable CLL subjects", "value": 61.5, "unit": "%"},
      {"measurement": "subjects achieving reduction in adenopathy", "setting": "[4]; 39 evaluable CLL subjects", "value": 94.5, "unit": "%"},
      {"measurement": "subjects with a less than 50% decrease in SPD from baseline", "setting": "[4]; 39 evaluable CLL subjects", "value": 33, "unit": "%"},
      {"measurement": "Discontinued study drug: AEs, %", "setting": "[4]; CLL N = 41", "value": "(8.8%)"},
      {"measurement": "Discontinued study drug: Death, %", "setting": "[4]; CLL N = 41", "value": "(2.4%)"},
      {"measurement": "Discontinued study drug: Progressive disease, %", "setting": "[4]; CLL N = 41", "value": "(34.1%)"},
      {"measurement": "PFS exceeded by seventy-five percent of the subjects", "setting": "[4]; CLL cohort", "value": "> 5.4", "unit": "months"},
      {"measurement": "death (PFS event), %", "setting": "[4]; CLL cohort, 41 subjects", "value": 2.4, "unit": "%"},
      {"measurement": "subjects with PFS events, %", "setting": "[4]; CLL cohort, 41 subjects", "value": 31.7, "unit": "%"},
      {"measurement": "subjects with disease progression, %", "setting": "[4]; CLL cohort, 41 subjects", "value": 29.3, "unit": "%"},
      {"measurement": "24 weeks PFS (primary end point)", "setting": "[4]; CLL cohort, 41 subjects, median follow up 5.5 months", "value": 69.8, "unit": "%"},
      {"measurement": "Median PFS", "setting": "[4]; CLL cohort, median follow up 5.5 months", "value": "not yet been reached"},
      {"measurement": "ORR", "setting": "[4]; CLL subjects", "value": 56.1, "unit": "%"},
      {"measurement": "subjects achieving a CR", "setting": "[4]; CLL subjects", "value": "no subject"},
      {"measurement": "subjects achieving a PR", "setting": "[4]; CLL subjects", "value": 23, "unit": "subjects"},
      {"measurement": "subjects with dose reduced to 400 mg", "setting": "[4]; CLL subjects", "value": 4.9, "unit": "%"},
      {"measurement": "subjects with dose reduced to 600 mg", "setting": "[4]; CLL subjects", "value": 14.6, "unit": "%"},
      {"measurement": "subjects with progressive disease (best response)", "setting": "[4]; CLL subjects", "value": 2.4, "unit": "%"},
      {"measurement": "subjects with stable disease", "setting": "[4]; CLL subjects", "value": 44, "unit": "%"},
      {"measurement": "time for mean absolute lymphocyte count to return to baseline", "setting": "[4]; CLL subjects", "value": "approximately 3 months"},
      {"measurement": "nodal response (50% reduction in SPD) with persistent lymphocytosis, %", "setting": "[4]; CLL subjects with stable disease", "value": 4.9, "unit": "%"},
      {"measurement": "nodal response with persistent lymphocytosis, subjects", "setting": "[4]; CLL subjects, additional to ORR", "value": 2, "unit": "subjects"},
      {"measurement": "subjects requiring at least one dose reduction from the starting dose", "setting": "[4]; CLL subjects, starting dose 800 mg twice a day", "value": 19.5, "unit": "%"},
      {"measurement": "mean absolute lymphocyte count", "setting": "[4]; day 8, rose from 50,090", "value": "72,980 lymphocytes per microliter"},
      {"measurement": "responding subjects with a PR at the first post-baseline evaluation", "setting": "[4]; of 23 responding subjects, scheduled at week 8", "value": 65.2, "unit": "%"},
      {"measurement": "differences in ORR within subgroups", "setting": "[4]; sex, age, number of prior therapies, IGHV mutation status, 17p deletion/TP53 mutation status", "value": "no significant differences"},
      {"measurement": "serum levels of BCR-induced CCL3", "setting": "CCL3", "value": "Significant reductions"},
      {"measurement": "serum levels of BCR-induced CCL4", "setting": "CCL4", "value": "Significant reductions"}
    ]}
  ]
}
